According to ChEMBL document CHEMBL1121470, “Synthesis and antiinflammatory activity of some 2-(substituted-pyridinyl)benzimidazoles” (J Med Chem, 1980):

What was measured:
[1] = tested on: Rattus norvegicus; assay: Compound was tested for analgesia when administered perorally; type: functional; conditions: po
[2] = tested on: Mus musculus; assay: Compound was tested for acute toxicity when administered perorally; type: functional; conditions: po
[3] = tested on: Rattus norvegicus; assay: Compound was tested for inhibition of scald edema when administered perorally; type: functional; conditions: po
[4] = tested on: Rattus norvegicus; assay: Compound was tested for inhibition of carrageenan induced edema when administered perorally; type: functional; conditions: po
[5] = molecular target: T1, Cyclooxygenase (Rattus norvegicus, UniProt P35355+Q63921); assay: Compound was tested for inhibition of prostaglandin synthetase […]; type: protein assay
T1 sequence (P35355 whole entry): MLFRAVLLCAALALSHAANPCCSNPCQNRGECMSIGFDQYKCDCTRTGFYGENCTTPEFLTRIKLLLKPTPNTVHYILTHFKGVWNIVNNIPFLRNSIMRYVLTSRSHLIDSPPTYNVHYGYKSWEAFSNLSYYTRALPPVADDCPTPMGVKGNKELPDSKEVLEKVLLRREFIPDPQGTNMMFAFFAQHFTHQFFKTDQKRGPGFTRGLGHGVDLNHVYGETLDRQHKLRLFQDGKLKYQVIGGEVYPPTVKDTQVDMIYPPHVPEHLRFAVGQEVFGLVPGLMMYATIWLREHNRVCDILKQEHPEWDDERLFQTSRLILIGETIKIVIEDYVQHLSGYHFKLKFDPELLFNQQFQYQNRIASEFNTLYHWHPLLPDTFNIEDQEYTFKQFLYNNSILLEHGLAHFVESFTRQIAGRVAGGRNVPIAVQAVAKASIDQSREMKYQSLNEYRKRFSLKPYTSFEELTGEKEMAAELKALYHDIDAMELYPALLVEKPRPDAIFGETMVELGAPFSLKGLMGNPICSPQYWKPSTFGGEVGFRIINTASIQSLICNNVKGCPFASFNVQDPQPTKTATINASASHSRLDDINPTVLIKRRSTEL
T1 sequence (Q63921 whole entry): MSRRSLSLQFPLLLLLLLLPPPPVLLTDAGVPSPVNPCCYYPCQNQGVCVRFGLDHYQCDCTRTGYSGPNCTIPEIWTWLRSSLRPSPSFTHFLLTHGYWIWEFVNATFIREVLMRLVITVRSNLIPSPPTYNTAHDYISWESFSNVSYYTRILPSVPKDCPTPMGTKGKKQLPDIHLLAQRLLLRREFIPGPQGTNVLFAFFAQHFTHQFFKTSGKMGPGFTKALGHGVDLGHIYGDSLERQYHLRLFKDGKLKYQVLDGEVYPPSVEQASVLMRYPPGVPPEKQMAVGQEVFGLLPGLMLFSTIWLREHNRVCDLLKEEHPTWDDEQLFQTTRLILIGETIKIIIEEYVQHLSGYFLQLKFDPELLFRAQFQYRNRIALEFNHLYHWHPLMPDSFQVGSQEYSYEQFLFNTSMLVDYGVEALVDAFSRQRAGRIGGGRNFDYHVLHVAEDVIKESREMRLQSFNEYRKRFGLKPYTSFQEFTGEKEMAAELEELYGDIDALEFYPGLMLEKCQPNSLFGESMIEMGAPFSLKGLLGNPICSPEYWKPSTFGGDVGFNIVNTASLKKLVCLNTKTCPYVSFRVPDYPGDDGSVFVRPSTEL

[6] = tested on: Rattus norvegicus; assay: Compound was tested for ulcerogenicity when administered perorally; type: functional
[7] = tested on: Rattus norvegicus; assay: Antiinflammatory activity by carrageenan-induced rat paw edema assay after 3 hr at 100 mg/kg concentration administered perorally.; type: functional; conditions: route oral
[8] = tested on: Rattus norvegicus; assay: Compound was tested for anti-pyrexia when administered perorally; type: functional; conditions: po
[9] = tested on: Rattus norvegicus; assay: Compound was tested for inhibition of contund edema when administered perorally; conditions: po
[10] = tested on: Rattus norvegicus; assay: Antiinflammatory activity was evaluated by carrageenan-induced rat paw edema assay after 3 hr at 100 mg/kg concentration administered perorally; type: functional; conditions: route oral
[11] = tested on: Mus musculus; assay: Compound was evaluated for analgesia at 100 mg/kg when administered perorally (+ = positive mice >/= 2); type: functional; conditions: route oral
[12] = Compound was evaluated for lethal dose in mice when administarted intraperitoneally; type: toxicity, organism-based; conditions: mouse, in vivo, ip
[13] = tested on: Rattus norvegicus; assay: Antiinflammatory activity was evaluated by contund edema after 3 hr at 200 mg/kg concentration administered perorally; type: functional; conditions: route oral
[14] = tested on: Mus musculus; assay: Compound was evaluated for analgesia at 100 mg/kg when administered perorally (- = positive mice</=1); type: functional; conditions: route oral
[15] = tested on: Rattus norvegicus; assay: Antiinflammatory activity was evaluated by carrageenan-induced rat paw edema assay after 3 hr at 100 mg/kg concentration administered perorally (=p< 0.05); type: functional; conditions: route oral
[16] = tested on: Rattus norvegicus; assay: Antiinflammatory activity was evaluated by carrageenan-induced rat paw edema assay after 3 hr at 100 mg/kg concentration administered perorally (=p</=0.01); type: functional; conditions: route oral
[17] = tested on: Rattus norvegicus; assay: Compound was tested for inhibition of contund edema when administered perorally; type: functional; conditions: po
[18] = tested on: Rattus norvegicus; assay: Compound was tested for anti-pyrexia (Yeast-induced pyrexia) when administered perorally; type: functional; conditions: po
[19] = tested on: Rattus norvegicus; assay: Compound was tested for analgesia by Acetic acid writhing method when administered perorally; type: functional; conditions: po
[20] = Compound was tested for acute toxicity when administered intraperitoneally in mice; type: organism-based; conditions: mouse, in vivo, ip
[21] = tested on: Mus musculus; assay: Compound was evaluated for analgesia at 100 mg/kg when administered perorally (+ = positive mice >/=2); type: functional; conditions: route oral
[22] = tested on: Mus musculus; assay: Compound was evaluated for analgesic activity at 100 mg/kg when administered perorally (- = positive mice</= 1); type: functional; conditions: route oral
[23] = tested on: Rattus norvegicus; assay: Antiinflammatory activity was evaluated by contund edema assay after 3 hr at 200 mg/kg concentration administered perorally; type: functional; conditions: route oral

Row | Structure (SMILES) | inhibition in vivo at 100 mg/kg [7] [%] | inhibition in vivo at 100 mg/kg [10] [%] | further results
1 | CCCCC1C(=O)N(c2ccccc2)N(c2ccccc2)C1=O [PHENYLBUTAZONE] | 43 | – | ED50 [1]: 280 mg/kg; LD50 [2]: 616 mg/kg; ED40 [3]: 180 mg/kg; ED40 [4]: 100 mg/kg; IC50 [5]: 0.000015 M; UD50 [6]: 142 mg/kg; ED60 [8]: 44 mg/kg; ED40 [9]: 200 mg/kg
2 | Cc1ccc(-c2nc3cc(Cl)ccc3[nH]2)nc1 | -5 | – | –
3 | CCc1cccc(-c2nc3cc(Cl)ccc3[nH]2)n1 | 3 | – | –
4 | CCc1ccc(-c2nc3cc([N+](=O)[O-])ccc3[nH]2)nc1 | -5 | – | –
5 | Cc1ccnc(-c2nc3ccccc3[nH]2)c1 | – | -4 | –
6 | Cc1ccc(-c2nc3ccccc3n2CCN(C)C)nc1 | 12 | – | –
7 | COc1cccc(-c2nc3ccccc3[nH]2)n1 | – | 47 | Activity [11]: >=2; LD50 [12]: > 300 mg/kg
8 | CCc1ccc(-c2nc3ccccc3n2-c2ccccc2)nc1 | 12 | – | –
9 | CCc1ccc(-c2nc3ccccc3n2CC(=O)N2CCN(CCO)CC2)nc1 | 4 | – | –
10 | Cc1ccc(-c2nc3ccccc3n2CC(=O)N2CCCC2)nc1 | 14 | – | –
11 | Cc1ccc(-c2nc3ccccc3n2CC(=O)N2CCN(CCO)CC2)nc1 | 14 | – | –
12 | Cc1ccc(-c2nc3ccccc3n2CC(=O)N2CCN(C)CC2)nc1 | 11 | – | –
13 | CCc1cccc(-c2nc3ccccc3[nH]2)n1 | – | 41 | LD50 [12]: > 300 mg/kg; inhibition in vivo at 200 mg/kg [13]: 85%
14 | OCc1cccc(-c2nc3ccccc3[nH]2)n1 | – | -13 | –
15 | Cc1ccc(-c2nc3ccccc3[nH]2)nc1 | – | 19 | –
16 | CCc1ccc(-c2nc3ccccc3n2C)nc1 | 5 | – | –
17 | NC(=O)c1cccc(-c2nc3ccccc3[nH]2)n1 | – | 13 | –
18 | CCc1ccc(-c2nc3cc(Cl)ccc3[nH]2)nc1 | -2 | – | –
19 | Cc1ccc2[nH]c(-c3cccc(C)n3)nc2c1 | 42 | – | LD50 [12]: 812 mg/kg; inhibition in vivo at 200 mg/kg [13]: 67%; Activity [14]: 1
20 | CCCCc1ccc(-c2nc3ccccc3[nH]2)nc1 | – | -16 | –
21 | CCc1ccc(-c2nc3cc(C)ccc3[nH]2)nc1 | – | – | inhibition in vivo at 100 mg/kg [15]: 35%
22 | CCc1ccc(-c2nc3cc(O)ccc3[nH]2)nc1 | 25 | – | –
23 | Cc1cccc(-c2nc3cc(O)ccc3[nH]2)n1 | 6 | – | –
24 | CCc1ccc(-c2nc3cc(N)ccc3[nH]2)nc1 | 25 | – | –
25 | CCc1ccc(-c2nc3ccccc3n2Cc2ccccc2)nc1 | -18 | – | –
26 | Cc1ccc2nc(-c3ccccn3)[nH]c2c1 | – | 35 | –
27 | Clc1cccc(-c2nc3ccccc3[nH]2)n1 | – | 30 | –
28 | OCc1ccc(-c2nc3ccccc3[nH]2)nc1 | – | -10 | –

Row | Structure (SMILES) | inhibition in vivo at 100 mg/kg [7] [%] | inhibition in vivo at 100 mg/kg [10] [%] | further results
29 | Cc1cccnc1-c1nc2ccccc2[nH]1 | – | 17 | –
30 | CCc1ccc(-c2nc3ccccc3n2CC(=O)N2CCCC2)nc1 | -5 | – | –
31 | COc1cccc(-c2nc3cc(C)ccc3[nH]2)n1 | 32 | – | –
32 | CCc1cccc(-c2nc3cc(C)ccc3[nH]2)n1 | 10 | – | –
33 | COC(=O)Cn1c(-c2ccccn2)nc2ccccc21 | -17 | – | –
34 | Oc1cccc(-c2nc3ccccc3[nH]2)n1 | – | -7 | –
35 | Cl.O=C(Cn1c(=O)sc2ccc(Cl)cc21)N1CCN(CCO)CC1 [TIARAMIDE HYDROCHLORIDE] | 31 | – | ED50 [1]: 76 mg/kg; LD50 [2]: 203 mg/kg; ED40 [3]: 200 mg/kg; ED40 [4]: 160 mg/kg; IC50 [5]: > 0.0001 M; UD50 [6]: 163 mg/kg; ED60 [8]: 100 mg/kg; ED40 [9]: 200 mg/kg
36 | CCc1cccc(-c2nc3cc(OC)ccc3[nH]2)n1 | 52 | – | LD50 [12]: > 300 mg/kg; inhibition in vivo at 200 mg/kg [13]: 87%; Activity [14]: 1
37 | O=C(Cn1c(-c2ccccn2)nc2ccccc21)N1CCN(CCO)CC1 | -4 | – | –
38 | Cc1ccc(-c2nc3ccccc3n2CC(=O)N2CCCCC2)nc1 | 2 | – | –
39 | Cc1ccc(-c2nc3cc(C)ccc3[nH]2)nc1 | – | 7 | –
40 | Cc1ccc(-c2nc3ccccc3[nH]2)nc1C | 37 | – | –
41 | Cc1cccc(-c2nc3cc(Cl)ccc3[nH]2)n1 | 39 | – | LD50 [12]: 1230 mg/kg; inhibition in vivo at 200 mg/kg [13]: 95%; Activity [14]: 1
42 | Cc1ccc2[nH]c(-c3ccc(C)c(C)n3)nc2c1 | -19 | – | –
43 | CCc1ccc(-c2nc3ccccc3n2CC(=O)OC)nc1 | 9 | – | –
44 | Clc1ccc2nc(-c3ccccn3)[nH]c2c1 | – | 36 | –
45 | Cc1ccc2[nH]c(-c3cccc(Cl)n3)nc2c1 | – | 36 | –
46 | COc1ccc2[nH]c(-c3cccc(C)n3)nc2c1 | 40 | – | LD50 [12]: 3730 mg/kg; inhibition in vivo at 200 mg/kg [13]: 39%; Activity [14]: 1
47 | CCc1ccc(-c2nc3cc(OC)ccc3[nH]2)nc1 | – | – | LD50 [12]: > 300 mg/kg; inhibition in vivo at 100 mg/kg [16]: 58%; Activity [14]: 1
48 | CCc1ccc(-c2nc3cc(NC(C)=O)ccc3[nH]2)nc1 | 5 | – | –
49 | c1ccc(-c2nc3ccccc3[nH]2)nc1 | – | 22 | –
50 | CCOC(=O)c1cccc(-c2nc3ccccc3[nH]2)n1 | – | 31 | –
51 | CCc1ccc(-c2nc3ccccc3[nH]2)nc1 | – | 44 | LD50 [12]: 1230 mg/kg; ED40 [3]: 110 mg/kg; ED40 [17]: 142 mg/kg; ED40 [4]: 70 mg/kg; IC50 [5]: 0.000076 M; UD50 [6]: 200 mg/kg; ED60 [18]: 68 mg/kg; inhibition in vivo at 200 mg/kg [13]: 81%; ED50 [19]: 140 mg/kg; LD50 [20]: 1230 mg/kg; Activity [21]: 2
52 | CCOC(=O)c1ccc(-c2nc3ccccc3[nH]2)nc1 | – | -16 | –
53 | COc1ccc2[nH]c(-c3ccccn3)nc2c1 | – | 34 | –
54 | Cc1ccc2[nH]c(-c3cccc(O)n3)nc2c1 | -6 | – | –
55 | Cc1cccc(-c2nc3ccccc3[nH]2)n1 | – | 44 | Activity [22]: 1; LD50 [12]: 3250 mg/kg; inhibition in vivo at 200 mg/kg [23]: 59%
